Experimental data published in US4396614A, “Novel steroids” (Uclaf; Roussel, priority 1980, dated 1983).

Experiments:
aldosterone monoacetate = assay: Antialdosterone activity: diuresis test in surrenalectomized rats (Kagawa/Marcus); format: in vivo, rat; settings: surrenalectomized male Sprague Dawley rats, 4 hours urine collection
Experimental: The study was effected by a test inspired by Kagawa [P.S.E.B.M., Vol. 99 (1958), p. 705] and Marcus [Endocrinology, Vol. 50 (1952), p. 286] in which male rats of the Sprague Dawley SPF 1FFA CREDO strain weighing 180 g were surrenalectomized 7 days before diuresis while anestesized with Imalgene (Ketamine) intraperitoneally at a dose of 100 mg/kg. After the operation and from the night before the start of the test, the rats received physiological serum as drinking water and the animals were held without food or drink for 17 hours before diuresis and the physiological serum was replaced by water containing 5% glucose. The test products were orally administered before placing them in a cage and at the moment of diuresis, the animals received intraperitoneally a hydrosaline surcharge of 5 ml per rat of 9.permill. physiological serum and subcutaneously 1 μg/kg of aldosterone monoacetate in 2.5% alcoholic solution.
The rats were placed in pairs in a diuresis cage without food or drink for 4 hours and at this time, a forced emission was induced by pressure against the bladder and the volume of recovered urine was measured. After careful rinsing of the cages and the glass, the urine volume was adjusted to 50 ml and this solution was treated to determine the amount of potassium and sodium in the urine by flame photometry in an autoanalyszer. […] 125-132]. […]

[1] = target: T1, androgen hormonal receptor of prostate cytosol (Rattus norvegicus, UniProt P15207); assay: Androgenic activity: hormonal receptor method of Raynaud, displacement of tritiated 17α-methyl-Δ^4,9,11-estratriene-17β-ol-3-one (Product R) in prostate cytosol; format: binding; settings: prostate cytosol of castrated male rats, incubated at 0° C. for 2 hours
T1 construct: The homogenate was centrifuged at 105,000 g per hour and the surnageant or cytosol was adjusted to a dilution of 1/5; from tissue; host or cells: prostate cytosol of male rats castrated 24 hours earlier
T1 sequence (P15207 1-902): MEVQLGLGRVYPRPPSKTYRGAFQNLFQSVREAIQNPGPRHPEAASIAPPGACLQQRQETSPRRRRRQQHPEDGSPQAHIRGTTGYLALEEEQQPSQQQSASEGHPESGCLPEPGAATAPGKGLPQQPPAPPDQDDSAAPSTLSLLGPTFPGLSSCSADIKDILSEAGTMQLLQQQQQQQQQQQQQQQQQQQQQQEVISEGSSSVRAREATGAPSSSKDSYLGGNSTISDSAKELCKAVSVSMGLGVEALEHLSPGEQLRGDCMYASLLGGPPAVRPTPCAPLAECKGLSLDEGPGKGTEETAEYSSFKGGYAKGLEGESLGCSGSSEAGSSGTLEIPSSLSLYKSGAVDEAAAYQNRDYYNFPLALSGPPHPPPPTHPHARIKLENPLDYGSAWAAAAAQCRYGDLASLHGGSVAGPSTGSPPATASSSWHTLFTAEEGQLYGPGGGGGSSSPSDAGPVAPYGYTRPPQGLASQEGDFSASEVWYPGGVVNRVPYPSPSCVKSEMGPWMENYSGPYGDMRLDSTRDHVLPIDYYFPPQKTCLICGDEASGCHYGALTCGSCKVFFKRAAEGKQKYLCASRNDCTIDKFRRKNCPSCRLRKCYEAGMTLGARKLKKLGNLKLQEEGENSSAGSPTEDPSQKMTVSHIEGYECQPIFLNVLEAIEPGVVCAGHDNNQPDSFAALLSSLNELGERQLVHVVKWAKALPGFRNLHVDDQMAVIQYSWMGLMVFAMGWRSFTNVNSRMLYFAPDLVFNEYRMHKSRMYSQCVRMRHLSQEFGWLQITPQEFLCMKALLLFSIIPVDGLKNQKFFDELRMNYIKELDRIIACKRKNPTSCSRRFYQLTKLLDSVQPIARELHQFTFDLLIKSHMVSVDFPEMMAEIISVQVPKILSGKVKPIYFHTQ
Experimental: The latter was homogenized in a buffered solution of 10 mm of tromethamine, 0.25 M of saccharose and a pH of 7.4 with hydrochloric acid. The homogenate was centrifuged at 105,000 g per hour and the surnageant or cytosol was adjusted to a dilution of 1/5 (weight/volume). The resulting solution was incubated at 0° C. for 2 hours in tubes with the same volume of cytosol with a fixed concentration of tritiated 17α-methyl-Δ^4,9,11 - estratriene-17β-ol-3-one (designated as tritiated Product R) in the presence or not of an increasing concentration of radioinactive 17α-methyl-Δ^4,9,11 -estratriene-17β-ol-3-one (designated as cold product R) or the test product. […] The plots were the curves representing the percentage of tritiated product R as a function of the log of the concentration of cold product R or the test product of the I50 straight line parallel to the axis of the abcisses and ordinates.
B/T=(B/T Max.+B/T Min.)/2
B/T max. is the percentage of tied tritiated product R when the product is not added and B/T min, is the percentage of tied tritiated product R when the maximum amount of cold product R is added.

CCC[C@@H]1CC2=CC(=O)C=C[C@]2(C)[C@H]2CC[C@@]3(C)[C@@H](CC[C@@]3(O)CCC(=O)O)[C@H]12 [Example 10, Potassium 7α-propyl-17α-Δ^1,4-pregnadiene-17β-ol-3-one-21-carboxylate]
percentage of inhibition of the activity of 1 μg/kg of aldosterone monoacetate (log of ratio sodium concentration/potassium concentration in urine) (aldosterone monoacetate; 0.4 mg/kg orally): 30%
percentage of inhibition of the activity of 1 μg/kg of aldosterone monoacetate (log of ratio sodium concentration/potassium concentration in urine) (aldosterone monoacetate; 2 mg/kg orally): 80%
ARL (relative affinity = 100×(CT/CX)) [1]: 0.02
